Blank lines part the entries; values can stand above or below the compound they belong to.
System: 653999-131-R-J2-PDC complex spheroids, growth inhibition
Test: Anticancer human tumor 653999-131-R-J2-PDC patient-derived lung adenocarcinoma cell line growth inhibition [RAS]
Conditions: for IC50: curve of first compound; for viability, T/C: stronger effect = lower value
Summary of the method: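 Tumour cells grown as complex spheroids with HUVEC endothelial cells and mesenchymal stem cells, treated with RAS pathway inhibitor combinations. Each agent spans half-log steps from near clinical Cmax, or 10 microM where Cmax is unknown.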

[1] = second compound 0.00316 µM, first compound 0.0316 µM
[2] = second compound 0.00316 µM, first compound 0.1 µM
[3] = second compound 0.01 µM, first compound 0.0316 µM
[4] = second compound 0.01 µM, first compound 0.1 µM
[5] = second compound 0.0316 µM, first compound 0.0316 µM
[6] = second compound 0.0316 µM, first compound 0.1 µM
[7] = second compound 0.1 µM, first compound 0.0316 µM
[8] = second compound 0.1 µM, first compound 0.1 µM
[9] = second compound 0.316 µM, first compound 0.0316 µM
[10] = second compound 0.316 µM, first compound 0.1 µM
[11] = second compound 1 µM, first compound 0.0316 µM
[12] = second compound 1 µM, first compound 0.1 µM
[13] = second compound 0.0316 µM, first compound 0.316 µM
[14] = second compound 0.0316 µM, first compound 1 µM
[15] = second compound 0.0316 µM, first compound 3.16 µM
[16] = second compound 0.0316 µM, first compound 10 µM
[17] = second compound 0.1 µM, first compound 0.316 µM
[18] = second compound 0.1 µM, first compound 1 µM
[19] = second compound 0.1 µM, first compound 3.16 µM
[20] = second compound 0.1 µM, first compound 10 µM
[21] = second compound 0.316 µM, first compound 0.316 µM
[22] = second compound 0.316 µM, first compound 1 µM
[23] = second compound 0.316 µM, first compound 3.16 µM
[24] = second compound 0.316 µM, first compound 10 µM
[25] = second compound 1 µM, first compound 0.316 µM
[26] = second compound 1 µM, first compound 1 µM
[27] = second compound 1 µM, first compound 3.16 µM
[28] = second compound 1 µM, first compound 10 µM
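Also: spheroids exposed to the agents for seven days before the readout.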

- IC50 (second compound 0.00316 µM): 14.2 nM
- IC50 (second compound 0.01 µM): 9.4 nM
- IC50 (second compound 0.0316 µM): 16.4 nM
- IC50 (second compound 0.1 µM): 12.4 nM
- IC50 (second compound 0.316 µM): 11.7 nM
- IC50 (second compound 1 µM): 15.9 nM
SMILES: CC(C)n1nc(-c2ccc3oc(N)nc3c2)c2c(N)ncnc21 + C=CC(=O)N1CCN(c2nc(OCC3CCCN3C)nc3c(F)c(-c4nc(N)cc(C)c4C(F)(F)F)c(Cl)cc23)C(C)C1
- viability, T/C (second compound 0.00316 µM, first compound 0.000316 µM): 98.1%
- viability, T/C (second compound 0.00316 µM, first compound 0.001 µM): 78.4%
- viability, T/C (second compound 0.00316 µM, first compound 0.00316 µM): 73.5%
- viability, T/C (second compound 0.00316 µM, first compound 0.01 µM): 52.5%
- viability, T/C [1]: 41.5%
- viability, T/C [2]: 22.6%
- viability, T/C (second compound 0.01 µM, first compound 0.000316 µM): 83.8%
- viability, T/C (second compound 0.01 µM, first compound 0.001 µM): 97.3%
- viability, T/C (second compound 0.01 µM, first compound 0.00316 µM): 68.8%
- viability, T/C (second compound 0.01 µM, first compound 0.01 µM): 50.5%
- viability, T/C [3]: 35%
- viability, T/C [4]: 29.1%
- viability, T/C (second compound 0.0316 µM, first compound 0.000316 µM): 101%
- viability, T/C (second compound 0.0316 µM, first compound 0.001 µM): 91.3%
- viability, T/C (second compound 0.0316 µM, first compound 0.00316 µM): 71.8%
- viability, T/C (second compound 0.0316 µM, first compound 0.01 µM): 58.1%
- viability, T/C [5]: 40.6%
- viability, T/C [6]: 25%
- viability, T/C (second compound 0.1 µM, first compound 0.000316 µM): 77.6%
- viability, T/C (second compound 0.1 µM, first compound 0.001 µM): 74.6%
- viability, T/C (second compound 0.1 µM, first compound 0.00316 µM): 70.7%
- viability, T/C (second compound 0.1 µM, first compound 0.01 µM): 55.2%
- viability, T/C [7]: 30.4%
- viability, T/C [8]: 26.3%
- viability, T/C (second compound 0.316 µM, first compound 0.000316 µM): 92.8%
- viability, T/C (second compound 0.316 µM, first compound 0.001 µM): 82%
- viability, T/C (second compound 0.316 µM, first compound 0.00316 µM): 66.3%
- viability, T/C (second compound 0.316 µM, first compound 0.01 µM): 51.1%
- viability, T/C [9]: 39.7%
- viability, T/C [10]: 27.8%
- viability, T/C (second compound 1 µM, first compound 0.000316 µM): 90.9%
- viability, T/C (second compound 1 µM, first compound 0.001 µM): 91.8%
- viability, T/C (second compound 1 µM, first compound 0.00316 µM): 72%
- viability, T/C (second compound 1 µM, first compound 0.01 µM): 55.8%
- viability, T/C [11]: 42.1%
- viability, T/C [12]: 26.6%

- IC50 (second compound 0.0316 µM): 558 nM
- IC50 (second compound 0.1 µM): 273 nM
- IC50 (second compound 0.316 µM): 117 nM
- IC50 (second compound 1 µM): < 31.6 nM
- IC50 (second compound 3.16 µM): < 31.6 nM
- IC50 (second compound 10 µM): < 31.6 nM
SMILES: CC(Nc1ccc2c(c1)OCCn1cc(N3C(=O)OCC3C(F)F)nc1-2)C(N)=O (stereo unspecified) + C#Cc1c(F)ccc2cc(O)cc(-c3ncc4c(N5CC6CCC(C5)N6)nc(OCC56CCCN5CC(F)C6)nc4c3F)c12
- viability, T/C [5]: 86.3%
- viability, T/C [6]: 70.3%
- viability, T/C [13]: 53.8%
- viability, T/C [14]: 44.4%
- viability, T/C [15]: 35.1%
- viability, T/C [16]: 22.3%
- viability, T/C [7]: 77.2%
- viability, T/C [8]: 66.9%
- viability, T/C [17]: 47%
- viability, T/C [18]: 32.3%
- viability, T/C [19]: 26.1%
- viability, T/C [20]: 22.6%
- viability, T/C [9]: 63.6%
- viability, T/C [10]: 51.2%
- viability, T/C [21]: 39.5%
- viability, T/C [22]: 25.5%
- viability, T/C [23]: 18.9%
- viability, T/C [24]: 13.5%
- viability, T/C [11]: 39.9%
- viability, T/C [12]: 35.1%
- viability, T/C [25]: 28.1%
- viability, T/C [26]: 23%
- viability, T/C [27]: 19%
- viability, T/C [28]: 11%
- viability, T/C (second compound 3.16 µM, first compound 0.0316 µM): 30.1%
- viability, T/C (second compound 3.16 µM, first compound 0.1 µM): 28.4%
- viability, T/C (second compound 3.16 µM, first compound 0.316 µM): 22.9%
- viability, T/C (second compound 3.16 µM, first compound 1 µM): 11.8%
- viability, T/C (second compound 3.16 µM, first compound 3.16 µM): 13.9%
- viability, T/C (second compound 3.16 µM, first compound 10 µM): 7.23%
- viability, T/C (second compound 10 µM, first compound 0.0316 µM): 17.1%
- viability, T/C (second compound 10 µM, first compound 0.1 µM): 14.3%
- viability, T/C (second compound 10 µM, first compound 0.316 µM): 10.6%
- viability, T/C (second compound 10 µM, first compound 1 µM): 8.07%
- viability, T/C (second compound 10 µM, first compound 3.16 µM): 5.81%
- viability, T/C (second compound 10 µM, first compound 10 µM): 4.16%

- IC50 (second compound 0.00316 µM): 1310 nM
- IC50 (second compound 0.01 µM): 1960 nM
- IC50 (second compound 0.0316 µM): 1410 nM
- IC50 (second compound 0.1 µM): 1540 nM
- IC50 (second compound 0.316 µM): 1500 nM
- IC50 (second compound 1 µM): 927 nM
SMILES: CC(C)NCC(C(=O)N1CCN(c2ncnc3c2C(C)CC3O)CC1)c1ccc(Cl)cc1 (stereo unspecified) + C=CC(=O)N1CCN(c2nc(OCC3CCCN3C)nc3c(F)c(-c4nc(N)cc(C)c4C(F)(F)F)c(Cl)cc23)C(C)C1
- viability, T/C [1]: 116%
- viability, T/C [2]: 104%
- viability, T/C (second compound 0.00316 µM, first compound 0.316 µM): 96.6%
- viability, T/C (second compound 0.00316 µM, first compound 1 µM): 52%
- viability, T/C (second compound 0.00316 µM, first compound 3.16 µM): 41.7%
- viability, T/C (second compound 0.00316 µM, first compound 10 µM): 40.8%
- viability, T/C [3]: 89.6%
- viability, T/C [4]: 100%
- viability, T/C (second compound 0.01 µM, first compound 0.316 µM): 69.1%
- viability, T/C (second compound 0.01 µM, first compound 1 µM): 61.1%
- viability, T/C (second compound 0.01 µM, first compound 3.16 µM): 44.2%
- viability, T/C (second compound 0.01 µM, first compound 10 µM): 40.9%
- viability, T/C [5]: 98.6%
- viability, T/C [6]: 97.3%
- viability, T/C [13]: 73.9%
- viability, T/C [14]: 54%
- viability, T/C [15]: 43.6%
- viability, T/C [16]: 35.5%
- viability, T/C [7]: 104%
- viability, T/C [8]: 95.1%
- viability, T/C [17]: 76.2%
- viability, T/C [18]: 52.9%
- viability, T/C [19]: 45.1%
- viability, T/C [20]: 37.7%
- viability, T/C [9]: 90.2%
- viability, T/C [10]: 95.9%
- viability, T/C [21]: 82.6%
- viability, T/C [22]: 53.8%
- viability, T/C [23]: 44.8%
- viability, T/C [24]: 39.6%
- viability, T/C [11]: 98.9%
- viability, T/C [12]: 87.7%
- viability, T/C [25]: 81.5%
- viability, T/C [26]: 46.9%
- viability, T/C [27]: 43.5%
- viability, T/C [28]: 41.1%
